# Results reported in patent publication US7368576B2, “Dipeptidyl peptidase IV inhibitors and their uses as anti-cancer agents” (Probiodrug AG, priority 2001, dated 2008).
# “Also recorded” adds a separate entry of the source. Where a name gives a salt, the structure may show the parent alone.
# Key:
# [1] = molecular target: T1, dipeptidyl peptidase IV from porcine kidney (Sus scrofa, UniProt P22411); assay: Ki determination, DPIV inhibition (glycylprolyl-4-nitroaniline); type: biochemical; conditions: HEPES pH7.6, 30° C.
# T1 construct: dipeptidyl peptidase IV from porcine kidney; from tissue; host or cells: porcine kidney
# [2] = molecular target: purified porcine DPIV (Sus scrofa, UniProt P22411); assay: Determination of IC50 values, DPIV (Gly-Pro-pNA); type: biochemical; conditions: Gly-Pro-pNA 0.4 mM, HEPES pH7.6, 30° C.
# Description: 100 μl inhibitor stock solution were mixed with 100 μl buffer (HEPES pH7.6) and 50 μl substrate (Gly-Pro-pNA, final concentration 0.4 mM) and preincubated at 30° C. Reaction was started by addition of 20 μl purified porcine DPIV. Formation of the product pNA was measured at 405 nm over 10 min using the HTS 7000Plus plate reader (Perkin Elmer) and slopes were calculated. The final inhibitor concentrations ranged between 1 mM and 30 nM. For calculation of IC50 GraFit 4.0.13 (Erithacus Software) was used.
# [3] = molecular target: T2, porcine dipeptidyl peptidase II (DP II) (Sus scrofa, UniProt A0A5G2QK18); assay: Inhibition of DPIV-like enzymes, dipeptidyl peptidase II; type: biochemical; conditions: lysylalanylaminomethylcoumarine, 30° C.; read-out: Ki against porcine dipeptidyl peptidase II
# T2 construct: The enzyme used was purified from porcine kidney; from tissue; host or cells: porcine kidney
# Description: DP II (3.4.14.2) releases N-terminal dipeptides from oligopeptides if the N-terminus is not protonated (McDonald, J. K., Ellis, S. & Reilly, T. J., 1966, J. Biol. Chem., 241, 1494-1501). Pro and Ala in Pi-position are preferred residues. The enzyme activity is described as DPIV-like activity, but DP II has an acidic pH-optimum. The enzyme used was purified from porcine kidney.
# 100 μl glutaminyl pyrrolidine or glutaminyl thiazolidine in an concentration range of 1*10^−4 M-5*10^−8 M were admixed with 100 μl μl buffer solution (40 mM HEPES, pH7.6, 0.015% Brij, 1 mM DTT), 50 μl lysylalanylaminomethylcoumarine solution (5 mM) and 20 μl porcine DP II (250fold diluted in buffer solution). Fluorescence measurement was performed at 30° C. and λexiatation=380 nm, λemission=465 nm for 25 min using a plate reader (HTS7000plus, Applied Biosystems, Weiterstadt, Germany).
# [4] = REINHOLD, D., et al., 1998; cited from earlier work
# [5] = tested on: MADB106 tumor cells; assay: In vivo cancer cell adhesion assay (CFSE labeled cells in lungs); design: species or system F344 rats; conditions: 30 min after inoculation
# Description: (§1) Cell culture, injection of tumor cells, dissection of the animals and immunohistochemistry were conducted as previously described (von Hörsten et al., 2000). In brief, 1×10^6 MADB106 tumor cells derived from log phase of tumor growth were injected via the lateral tail vein and lungs removed at different time points thereafter. For in situ quantification of tumor cells at early time points after injection (30 min), cells were vital dye stained using the fluorescein derivate 5- (and -6)-carboxyfluorescein diacetate succinimidyl ester (CFSE) before injection.
# Control sections were included in which one or both primary antibodies were omitted.
# Vital dye (Carboxyfluorescein; CFSE) labeling of MADB106 tumor cells allows the quantification of tumor cells and NK cells in thick sections of lung tissue by stereology in situ (von Hörsten et al, 2000). In the present study we produced thin sections (8 μm) of the same lungs (n=10) and performed additional microscopic counting by image analysis of DE1 positive cells. This was done to further simplify the previously validated stereological quantification technique. Therefore, in the present study, the assessment of DE1 positive tumor cells in lung tissue from different substrains 30 min after tumor inoculation was carried out using image analysis approach. […] Each right upper lobe of the lungs was sectioned at 6 randomly chosen non-adjacent levels. From each level, three sections were evaluated.
# [6] = tested on: MADB106 tumor cells; assay: Cancer colonization assay (lung surface tumor colonies); type: in vivo; conditions: F344 rats, 2 weeks after MADB106 injection; for number of lung surface tumor colonies, comparison of inhibitors: chronic intragastric infusion, isoleucyl thiazolidine fumarate 4 mg/24 h, the others 0.1 mg/24 h, vs. saline SHAM
# Description: as §1
# In brief, 1×10^6 MADB106 tumor cells derived from log phase of tumor growth were injected via the lateral tail vein and lungs removed at different time points thereafter. For in situ quantification of tumor cells at early time points after injection (30 min), cells were vital dye stained using the fluorescein derivate 5- (and -6)-carboxyfluorescein diacetate succinimidyl ester (CFSE) before injection.
# (§2) Osmotic minipumps (Alzet model 2ML4; flow rate, 2.5 μl/hr; Alza Corporation), administering a constant supply of the different compounds, aseptically prefilled with either saline or DPIV inhibitor were placed subcutaneously in the abdominal area. Minipums were attached to a cannula via polyethylene tubing. The cannula was implanted intragastrically with a heating-induced enlarged tip of the cannula in the lumen of the gaster.
# [7] = tested on: MADB106 tumor cells; assay: Body weight change in rats with lung metastasis; type: in vivo; conditions: F344 rats, chronic intragastric infusion via osmotic minipumps, 0.04, 0.4, 4 mg/24 h, 2 weeks after MADB106 injection, post-hoc significant at 0.4 mg and 4 mg
# Description: as §2
# Data from in vivo body weight gain and number of lung surface tumor colonies were analyzed by one-way ANOVAs and Fisher's PLSD post hoc tests, if appropriate. An asterisk indicates significant post hoc effects vs. saline (SHAM) treated controls obtained by Fisher's PLSD. All data are presented as means±S.E.M.
# [8] = tested on: MADB106 tumor cells; assay: Cancer colonization assay (lung surface tumor colonies); type: in vivo, F344 rats; conditions: F344USA rats, 2 mg i.v. + 2 mg i.p., 2 weeks after MADB106 injection, vs. saline; fumarate
# T2 sequence (A0A5G2QK18 28-502): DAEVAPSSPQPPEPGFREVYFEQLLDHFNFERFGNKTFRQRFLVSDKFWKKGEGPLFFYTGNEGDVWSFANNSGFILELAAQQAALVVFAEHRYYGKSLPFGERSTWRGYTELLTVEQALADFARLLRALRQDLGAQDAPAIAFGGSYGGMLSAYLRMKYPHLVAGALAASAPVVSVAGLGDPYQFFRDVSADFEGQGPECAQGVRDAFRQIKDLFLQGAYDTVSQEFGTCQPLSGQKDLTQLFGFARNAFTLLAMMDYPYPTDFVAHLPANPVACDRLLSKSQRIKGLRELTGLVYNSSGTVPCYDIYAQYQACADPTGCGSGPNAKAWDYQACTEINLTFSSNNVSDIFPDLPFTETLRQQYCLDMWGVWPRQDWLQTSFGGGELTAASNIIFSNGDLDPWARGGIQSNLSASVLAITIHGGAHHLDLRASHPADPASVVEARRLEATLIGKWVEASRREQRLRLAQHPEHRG
# T1 sequence (P22411 whole entry): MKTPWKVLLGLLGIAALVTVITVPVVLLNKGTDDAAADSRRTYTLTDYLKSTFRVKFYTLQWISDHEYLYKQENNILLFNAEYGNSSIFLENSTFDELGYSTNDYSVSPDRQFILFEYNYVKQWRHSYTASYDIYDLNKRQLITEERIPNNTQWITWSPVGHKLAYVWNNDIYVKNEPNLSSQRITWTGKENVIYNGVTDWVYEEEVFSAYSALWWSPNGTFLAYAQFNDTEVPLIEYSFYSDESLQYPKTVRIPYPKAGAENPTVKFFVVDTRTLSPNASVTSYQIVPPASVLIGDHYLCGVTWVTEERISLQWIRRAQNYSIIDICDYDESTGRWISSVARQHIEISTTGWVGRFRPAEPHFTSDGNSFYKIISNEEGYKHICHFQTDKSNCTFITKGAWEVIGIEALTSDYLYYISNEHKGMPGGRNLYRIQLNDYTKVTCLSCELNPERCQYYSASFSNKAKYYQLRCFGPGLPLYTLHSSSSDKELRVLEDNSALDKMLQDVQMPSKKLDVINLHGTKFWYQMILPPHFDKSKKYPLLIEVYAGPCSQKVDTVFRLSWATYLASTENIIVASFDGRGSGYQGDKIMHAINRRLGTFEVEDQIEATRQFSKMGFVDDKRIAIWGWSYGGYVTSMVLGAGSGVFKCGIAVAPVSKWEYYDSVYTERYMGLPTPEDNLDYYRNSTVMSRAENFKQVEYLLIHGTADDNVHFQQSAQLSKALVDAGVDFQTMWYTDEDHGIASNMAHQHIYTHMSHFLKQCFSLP
# Chain of purified porcine DPIV (P22411 whole entry): as above
smiles,measurement,setting,value
"NC(=O)CCC(N)C(=O)N1CCSC1 (stereo not drawn) [Gln-Thia, glutaminyl thiazolidine]",Ki,[1],1.21 µM
same,IC50,[2],527 µM
same,Ki,[3],10.7 µM
N[C@@H](CCC(=O)NCC(=O)O)C(=O)N1CCSC1 [Glu(Gly)-Thia],transport,[4],transported completely
CC[C@H](C)[C@H](N)C(=O)N1CCSC1 [Isoleucyl thiazolidine fumarate],"tumor cell adhesion, CFSE positive cells in lung tissue","[5]; DPIV mutant F344GER and F344JAP rats, single injection 2 mg i.v. + 2 mg i.p., fumarate",significantly modified; also recorded: promoting effect
same,"tumor cell adhesion, CFSE positive cells in lung tissue","[5]; wild-type F344USA rats, single injection i.v. + i.p., vs. saline, fumarate",did not significantly affect tumor adhesion; also recorded: lack of effects
same,"number of lung surface tumor colonies, different dosages","[6]; chronic intragastric infusion 0.04, 0.4, 4 mg/24 h, post-hoc significant at 4 mg, fumarate",significant effect; also recorded: dose dependent reduction of lung colony numbers
same,"number of lung surface tumor colonies, comparison of inhibitors",[6]; fumarate,dose-dependently reduced; also recorded: significant reduction of lung colony numbers
same,body weight change (cancer-induced weight loss),[7]; fumarate,dose-dependently reduced; also recorded: dose dependent reduction of the loss of body weight
same,number of lung surface tumor colonies after single injection,[8],no significant effect; also recorded: no significant differences
N[C@@H](CCCCNC(=O)OCc1ccc([N+](=O)[O-])cc1)C(=O)N1CCSC1 [Lys(Z-NO2)-Thia],transport,[4],transported completely
CC[C@H](C)[C@H](N)C(=O)N1CCCC1C#N.O=C(O)C(F)(F)F (stereo partly drawn) [isoleucyl cyanopyrrolidine TFA],"tumor cell adhesion, CFSE positive cells in lung tissue","[5]; wild-type F344USA rats, single injection i.v. + i.p., vs. saline, TFA",no significant effect; also recorded: significant differences vs. saline treated controls were not found
same,"number of lung surface tumor colonies, comparison of inhibitors",[6]; TFA,significant reduction of lung colony numbers
same,"number of lung surface tumor colonies, comparison of inhibitors","[6]; listed as isoleucyl cyano pyrrolidine TFA, TFA",dose-dependently reduced
same,body weight change (cancer-induced weight loss),[7],dose-dependently reduced
